Reference: patent publication US4132778A, “Antibiotic A-32887” (Eli Lilly and Company, priority 1977, dated 1979)

Legend:
[1] = tested on: Pasteurella multocida (bovine); experiment: Standard agar-dilution assay (MIC), Table VI; format: cell-based; conditions: Na-K salt
Description: Antibiotic A-32887 inhibits the growth of pathogenic bacteria, especially gram-positive bacteria. Table VI summarizes the minimal inhibitory concentrations (MIC), as measured by standard agar-dilution assays, at which A-32887 (Na-K salt) inhibits certain bacteria.

[2] = tested on: Staphylococcus aureus 3074 (Penicillin G-resistant); experiment: Conventional disc-diffusion method, Table VII; format: cell-based
Description: The activity of A-32887 (Na-K salt) against illustrative bacteria, as measured by the conventional disc-diffusion method, is summarized in Table VI.
*Penicillin G-resistant

[3] = tested on: Peptococcus asaccharolyticus; experiment: Standard agar-dilution assay, anaerobic bacteria, Table IX; format: cell-based; conditions: 24-hour incubation
[4] = tested on: Peptostreptococcus intermedius; experiment: as above; format: cell-based; conditions: 24-hour incubation
[5] = tested on: Bacteriodes corrodens; experiment: as above; format: cell-based; conditions: 24-hour incubation
[6] = tested on: Fusobacterium necrophorum; experiment: as above; format: cell-based; conditions: 24-hour incubation
[7] = tested on: coccidia; experiment: Feeding experiments in chicks challenged with coccidia; format: in vivo, Eimeria species; chicks; conditions: levels as low as 40 ppm in feed of young chickens
[8] = tested on: rumen flora; experiment: Rumen volatile-fatty-acid (VFA) production test in flasks (Table XIV); conditions: 1 mcg/ml
[9] = tested on: ruminal propionate concentration; experiment: Ruminal VFA in fistulated feed-lot cattle (Table XV); format: in vivo; conditions: 30 g/ton, 24 days
Description: The procedure used in testing cattle in this manner is also described in Raun's U.S. Pat. No. 3,839,557 (see Example 9). Table XV summarizes the results of such a test with A-32887 (Na-K salt) wherein five feed-lot cattle weighing approximately 425 kg. were in each group and the mean percent increases in ruminal propionate concentration were averaged over four analyses in a 24-day treatment period.

[10] = tested on: powdery mildew disease in bean plants; experiment: Plant disease test, spray; format: in vivo; conditions: 400 ppm as a spray
Description: The A-32887 compounds are also useful in the treatment of certain plant diseases.

[11] = tested on: Mexican bean beetle; experiment: Insecticidal activity; format: in vivo; conditions: 1000 ppm
Description: (§1) In another aspect, the A-32887 compounds are useful as insecticides. For example, A-32887 (Na-K salt) is active against insects such as Mexican bean beetle, Southern armyworm and housefly when applied at a rate of 1000 ppm.

[12] = tested on: Southern armyworm; experiment: Insecticidal activity; format: in vivo; conditions: 1000 ppm
Description: as §1

[13] = tested on: housefly; experiment: Insecticidal activity; format: in vivo; conditions: 1000 ppm
Description: as §1

[14] = tested on: ATPase; experiment: In vitro ATPase inhibition test using NaCl; format: biochemical
Description: In yet another aspect, the A-32887 compounds are active as inhibitors of the enzyme ATPase. ATPase, an alkali-metal-sensitive enzyme found in cell membranes, is involved in the energy necessary for active transport. "Active transport" refers to the energy-requiring series of operations whereby intracellular and extracellular fluids maintain their compositions. Inhibitors of ATPase reduce the energy required for active transport.

CO[C@H]1CC[C@H](OC2[C@@H](C)[C@@](C)(O)O[C@H]([C@H]3CC[C@H]([C@@H]4CC[C@H]([C@@]5(C)O[C@]6(O[C@H](C[C@@H]7O[C@](O)([C@@H](O)C(=O)O)[C@@H](C)[C@H](OC)[C@@]7(C)OC)C[C@@H](OC)[C@H]6C)[C@H](C)[C@H]5OC)O4)O3)[C@H]2C)O[C@@H]1C.[K+].[Na+] (stereo partly shown) [A-32887 (Na-K salt)]
MIC [1]: 50.00 mg/L | Zone of Inhibition ([2]; 30 mcg/disc): 12.7 mm | Zone of Inhibition ([2]; 300 mcg/disc): 16.0 mm | MIC [3]: ≤ 0.5 mg/L | MIC [4]: 1.0 mg/L | MIC [5]: 2 mg/L | MIC [6]: 32 mg/L | mortality and number of lesions in challenged chicks [7]: decreases mortality and the number of lesions | Ratio of Treated to Control, Molar % Acetate [8]: 0.5744 | Ratio of Treated to Control, Molar % Butyrate [8]: 1.1116 | Ratio of Treated to Control, Total VFA mM/l. [8]: 0.7498 | Ratio of Treated to Control, Molar % Propionate ([8]; *P<0.01): 1.4191 | Molar % Butyrate [9]: 9.6 Molar % | Total VFA [9]: 79.6 mM/l. | inhibition of powdery mildew disease [10]: inhibits powdery mildew disease | insecticidal activity [11]: active | insecticidal activity [12]: active | insecticidal activity [13]: active | ATPase inhibition [14]: shown to inhibit ATPase
